Key:
Assay type in all cases: in vivo
[1] = test system: CD4+CD45RBhigh T-cell transfer-induced IBD in CB17 mice; experiment: T cell transfer induced inflammatory bowel disease (IBD) model; conditions: 90 mg/kg po qd day 14 to day 41
Description: Female CB17 mice (8 weeks old) were obtained from Zhejiang Vital River Laboratory Animal Co. Ltd. Animals were housed and handled in a temperature-controlled environment with a 12-h light/12-h dark cycle. A total of 30 mice were assigned to 3 groups by randomization based on body weight.
To generate T cell transfer induced colitis, 95 female Balb/c mice, aged 8-10 weeks, were used to prepare naive CD4^+CD45RB^high T and CD4^+CD45RB^low T cells. The mouse spleens were harvested in precooled DPBS, grinded into cell suspension and passed through a 70 μm cell filter after erythrocytes lysed by ACK. Cells were collected and counted by centrifugation. Then, CD4 positive T cells were isolated by using negative magnetic bead separation kit. CD4^+CD45RB^high naive T cells were selected by flow cytometry and used for model construction. 20 CB17 model mice were intraperitoneally injected with 5×10^5 naive CD4^+CD45RB^high T cells each on Day 0. 10 mice in negative control group were intraperitoneally injected with 5×10^5 CD4^+CD45RB^low T cells on Day 0.
Mice in Group 2 were treated with vehicle for 28 days (po, qd, from day 14 to day 41). Mice in Group 3 were treated with 90 mg/kg Cpd. 73 for 28 days (therapeutic regimen, po, qd, from day 14 to day 41). The protocols and procedures involving the care and use of animals were approved by the Institutional Animal Care and Use Committee (IACUC) at WuxiApptec (Shanghai, China).
Clinical signs of IBD were assessed every day based on the score of disease activity index (DAI) which was evaluated from two parameters using a scoring system from 0 to 4: stool consistency (0, normal stool; 1, soft but still formed stool; 2, soft and not formed stool; 3, very soft and wet stool; 4, watery diarrhea), and body weight loss (0, no body weight loos; 1, 1-5% body weight loss; 2, 6-10% body weight loss; 3, 11-20% body weight loss; 4, >20% body weight loss).
At the end of the study (day 42), the animals were euthanized, dissected and the entire colon was quickly removed and gently cleared of feces.
At the end of the study (day 42), all the animals were sacrificed by CO2. The colon was Swiss-rolled and fixed with neutralized PFA followed by H&E staining. After that, the pathologists from WuXi clinical pathological analysis platform, who were blinded to animal ID, reviewed the H&E staining and scored. The pathological scoring standards were as follows: crypt architecture (normal, 0; severe crypt distortion with loss of entire crypts, 3), degree of inflammatory cell infiltration (normal, 0; dense inflammatory infiltrate, 3), muscle thickening (normal, 0; marked muscle thickening present, 3), goblet cell depletion (absent, 0; present, 1) and crypt abscess (absent, 0; present, 1).

[2] = test system: DSS induced IBD in C57BL/6 mice; experiment: DSS induced inflammatory bowel disease (IBD) model; conditions: 90 mg/kg po qd day 0 to day 7
Description: Female C57BL/6 mice (8 weeks old) were obtained from Beijing Vital River Laboratory Animal Co. Ltd. Animals were housed and handled in a temperature-controlled environment with a 12-h light/12-h dark cycle. A total of 30 mice were assigned to 3 groups by randomization based on body weight.
On Day 0, colitis was induced by administration of 3% DSS (dextran sodium sulfate, molecular weight 36,000-50,000) in drinking water ad libitum for 8 days. 8-week-old mice were divided into 3 groups: Group 2, DSS treatment group (vehicle, po, qd, from day 0 to day 7); Group 3, DSS with 90 mg/kg Cpd. 73 (po, qd, from day 0 to day 7); and the Group 1 (G1) Naive group, the mice were provided drinking water without DSS. The protocols and procedures involving the care and use of animals were approved by the Institutional Animal Care and Use Committee (IACUC) at Wuxi Apptec (Shanghai, China).
At the end of the study, the animals were euthanized, dissected and the entire colon was quickly removed and gently cleared of feces.
At the end of the study (day 8), all the animals were sacrificed by CO2. The colon was Swiss-rolled and fixed with neutralized PFA followed by H&E staining. After that, the pathologists from WuXi clinical pathological analysis platform, who were blinded to animal ID, reviewed the H&E staining and scored. […]

[3] = test system: chronic kidney disease-induced anemia in SD rats; experiment: Rat model of chronic kidney disease-induced anemia (adenine); conditions: 5, 15, 45 mg/kg po QD×4 weeks, end of study
Protocol: SPF-grade male SD rats (200±20 g, 8 weeks) were purchased from Zhejiang Vital River Laboratory Animal Technology Co., Ltd. After acclimating for a week, blood samples were collected and analyzed to exclude anormal animals. The normal animals were randomized, 10 animals were assigned into Control group which were left untreated until the end of the study, and the rest animals received 300 mg/kg adenine by oral gavage (QD×6 weeks). […] Then 60 adenine-treated rats with successful model establishment were further randomized into the following six groups: Model group (treated with vehicle), EPO group (50 U/kg), Cpd. 73 5 mg/kg group, Cpd. 73 15 mg/kg group, Cpd. 73 45 mg/kg group and CPD. 73+EPO group (15 mg/kg+50 U/kg). Each group contained 10 animals. Cpd. 73 was administered to rats by oral gavage (QD×4 weeks), while EPO was subcutaneously administered (TIW×4 weeks).
Body weight, mortality and health condition of rats were recorded twice a week. After model establishment, blood samples were take from the orbit and a few parameters were determined including RBC, HGB, HCT, RET, BUN and Creatine. Blood samples were taken once a week during drug treatment and RBC, HGB, HCT, and RET were analyzed.

Which results are given for `CC(C)N1Cc2cc(C(F)(F)F)ncc2-c2cnc(NCc3c(F)ccc4c3CCO4)n3cnc(c23)C1=O` [Cpd. 73, 12-(((5-fluoro-2,3-dihydrobenzofuran-4-yl)methyl)amino)-4-isopropyl-7-(trifluoromethyl)-4,5-dihydro-3H-2,4,8,11,12a-pentaazabenzo[4,5]cycloocta[1,2,3-cd]inden-3-one]?
body weight loss [1]: improved; colon length ([1]; day 42, vehicle 7.72±0.18 cm): 10.26±0.22 cm; pathological score (H&E, colon) ([1]; day 42, vehicle 9.00±0.47): 3.70±0.37; colon weight ([1]; day 42, vehicle 439.10±25.46 mg): 323.40 ± 16.06 mg; DAI score ([1]; on day 42, vehicle 4.90±0.41): 1.4±0.27; pathological score (H&E, colon) ([2]; day 8, vehicle 10.10±0.18): 8.30±0.54; colon density (colon weight/colon length) ([2]; vehicle 50.88±2.53): 41.86±2.57; body weight ([3]; p<0.001 or 0.01 vs Model): dose-dependently improved; HCT ([3]; p<0.001 or 0.05 vs Model): dose-dependently improved; HGB ([3]; p<0.001 or 0.05 vs Model): dose-dependently improved; RBC ([3]; p<0.001 or 0.05 vs Model): dose-dependently improved; RET ([3]; p<0.001 or 0.05 vs Model): dose-dependently improved

— patent publication US20240366611A1, “METHODS OF TREATING A DISEASE OR DISORDER” (Ascentage Pharma (Suzhou) Co., Ltd., priority 2021, published 2024)
